Literature values, collected in PubChem BioAssay AID1259410 (Chemical Carcinogenesis Research Information System (CCRIS), 2018).

Test system: rodent tumor promotion studies, tumor incidence
Experiment: CCRIS tumor promotion studies

COC(=O)[C@H]1[C@@H](OC(=O)c2ccccc2)C[C@@H]2CC[C@H]1N2C
outcome (Carcinogen: MURINE SARCOMA VIRUS, Doses [Promoter]: 0, 0.5 MG/KG/D FOR 3 D BEGINNING ON DAY OF VIRUS INJECTION (STUDY DURATION: 20 D), Route [Carcinogen]: INTRAMUSCULAR, Route [Promoter]: SUBCUTANEOUS, Species: MOUSE, Strain/Sex: BALB/FEMALE): injection site: tumor

O=C(O)CCC(=O)O
outcome (Carcinogen: N-BUTYL-N-(4-HYDROXYBUTYL)NITROSAMINE, 3817-11-6, Doses [Carcinogen]: 0.05% IN DRINKING WATER FOR 4 WK, Doses [Promoter]: 0, 5% IN BASAL DIET BEGINNING POST CARCINOGEN TREATMENT AND CONTINUING FOR 32 WK (STUDY DURATION: 36 WK), Route [Carcinogen]: ORAL, Route [Promoter]: ORAL, Species: RAT, Strain/Sex: F344/MALE): urinary bladder: papilloma, carcinoma

CC(=O)Oc1ccccc1C(=O)O
outcome (Carcinogen: N-(4-(5-NITRO-2-FURYL)-2-THIAZOLYL)FORMAMIDE, 24554-26-5, Doses [Carcinogen]: 0.2% IN DIET FOR 12 WK (TOTAL DOSE: 2.7 G), Doses [Promoter]: 0.5% IN DIET (TOTAL DOSE: 45.9 G) BEGINNING 2 D PRIOR TO SIMULTANEOUS ADMINISTRATION WITH CARCINOGEN FOR 12 WK THEN CONT, Route [Carcinogen]: ORAL, Route [Promoter]: ORAL, Species: RAT, Strain/Sex: F344/MALE): urinary bladder: transitional cell carcinoma
outcome (Carcinogen: N-(4-(5-NITRO-2-FURYL)-2-THIAZOLYL)FORMAMIDE, 24554-26-5, Doses [Carcinogen]: 0.2% IN DIET FOR 12 WK (TOTAL DOSE: 3 G), Doses [Promoter]: 0.5% IN DIET (TOTAL DOSE: 39.9 G) BEGINNING 7 D POST LAST CARCINOGEN DOSE AND CONTINUING FOR DURATION OF STUDY (STUDY DU, Route [Carcinogen]: ORAL, Route [Promoter]: ORAL, Species: RAT, Strain/Sex: F344/MALE): urinary bladder: transitional cell carcinoma

CCCCCCCCCC1(CCCCCC(=O)OC2C(C)C3(O)C(C=C(CO)CC4(O)C(=O)C(C)=CC43)C3C(C)(C)C23OC(C)=O)OCC(C)(C)N1[O] (configuration not stated)
outcome (Carcinogen: 7,12-DIMETHYLBENZ[A]ANTHRACENE, 57-97-6, Doses [Carcinogen]: 100 NMOL ONCE, Doses [Promoter]: 0, 5 NMOL 2/WK FOR 24 WK BEGINNING 1 WK POST CARCINOGEN DOSE (STUDY DURATION: 25 WK), Route [Carcinogen]: DERMAL, Route [Promoter]: DERMAL, Species: MOUSE, Strain/Sex: NMRI/FEMALE): skin: tumor

Cn1cc[nH]c1=S
outcome (Carcinogen: Acrylonitrile, 79-06-1, Doses [Carcinogen]: 2-3 mg/kg in drinking water, study duration 2 mo, Doses [Promoter]: 100 mg/l in drinking water, study duration 2 mo, Route [Carcinogen]: Oral, Route [Promoter]: Oral, Species: Mouse, Strain/Sex: CD1/Female (20,?)/(30/ ?)): thyroid; no tumors

CCC1(CC)C(=O)N=C(O)NC1=O
outcome (Carcinogen: CISPLATIN, 15663-27-1, Doses [Carcinogen]: 5 MG/KG BW GIVEN INTRAPERITONEALLY TO FEMALE RATS ON DAY 18 OF GESTATION, Doses [Promoter]: 0, 500 PPM IN DRINKING WATER BEGINNING AT 4 WK OF AGE AND CONTINUING FOR 75 WK (STUDY DURATION: 79 WK), Route [Carcinogen]: TRANSPLACENTAL, Route [Promoter]: ORAL, Species: RAT, Strain/Sex: F344/MALE): kidney: renal cell adenoma
outcome (Carcinogen: METHYL(ACETOXYMETHYL)NITROSAMINE, 56856-83-8, Doses [Carcinogen]: 0.05 MMOL/KG IN 5 ML STERILE PHOSPHATE BUFFER ONCE, Doses [Promoter]: 0, 500 PPM IN DRINKING WATER BEGINNING 2 WK POST CARCINOGEN DOSE AND CONTINUING FOR 78 WK (STUDY DURATION: 80 WK), Route [Carcinogen]: INTRAPERITONEAL, Route [Promoter]: ORAL, Species: RAT, Strain/Sex: F344/MALE): kidney: tumor
outcome (Carcinogen: N-BUTYL-N-(4-HYDROXYBUTYL)NITROSAMINE, 3817-11-6, Doses [Carcinogen]: 0.5% IN DRINKING WATER FOR 4 WK, Doses [Promoter]: 1000 PPM IN DIET BEGINNING 1 D POST CARCINOGEN DOSE FOR DURATION OF STUDY (STUDY DURATION: 36-52 WK), Route [Carcinogen]: ORAL, Route [Promoter]: ORAL, Species: RAT, Strain/Sex: F344/MALE): urinary bladder: papilloma or carcinoma
outcome (Carcinogen: N-NITROSODIETHYLAMINE, 55-18-5, Doses [Carcinogen]: 75 MG ONCE, Doses [Promoter]: 0, 500 PPM IN DRINKING WATER BEGINNING 2 WK POST CARCINOGEN DOSE AND CONTINUING FOR DURATION OF STUDY (STUDY DURATION: 5, Route [Carcinogen]: INTRAPERITONEAL, Route [Promoter]: ORAL, Species: RAT, Strain/Sex: F344/MALE): liver: hepatocellular adenoma
outcome (Carcinogen: N-NITROSODIETHYLAMINE, 55-18-5, Doses [Carcinogen]: 75 MG ONCE, Doses [Promoter]: 0, 500 PPM IN DRINKING WATER BEGINNING 2 WK POST CARCINOGEN DOSE AND CONTINUING FOR DURATION OF STUDY (STUDY DURATION: 7, Route [Carcinogen]: INTRAPERITONEAL, Route [Promoter]: ORAL, Species: RAT, Strain/Sex: F344/MALE): liver: hepatocellular carcinoma; kidney: renal tubular adenoma or adenocarcinoma
outcome (Carcinogen: N-[4-(5-NITRO-2-FURYL)-2-THIAZOLYL]FORMAMIDE, 24554-26-5, Doses [Carcinogen]: 0.2% IN DIET FOR 6 WK, Doses [Promoter]: 1000 PPM IN DIET BEGINNING 2 WK POST LAST CARCINOGEN DOSE AND CONTINUING FOR DURATION OF STUDY (STUDY DURATION: 52-68 WK, Route [Carcinogen]: ORAL, Route [Promoter]: ORAL, Species: RAT, Strain/Sex: F344/MALE): urinary bladder: papilloma or carcinoma
outcome (Carcinogen: NONE (PROMOTION OF SPONTANEOUS TUMORS), Doses [Promoter]: 500 PPM IN DIET FOR 4.5 MONTHS (STUDY DURATION: 4.5 MONTHS), Route [Promoter]: ORAL, Species: RAT, Strain/Sex: EKER (TSC2 MUTANT)/MALE): kidney: adenoma or carcinoma
outcome (Doses [Carcinogen]: 45 UMOL/KG BW GIVEN INTRAPERITONEALLY TO MOTHERS ON DAYS 16 AND 18 OF GESTATION, Doses [Promoter]: 0, 0.05% IN DRINKING WATER BEGINNING AT 4 WK OF AGE AND CONTINUING FOR 81 WK (STUDY DURATION: 85 WK), Route [Carcinogen]: TRANSPLACENTAL, Route [Promoter]: ORAL, Species: RAT, Strain/Sex: F344/MALE): kidney: tumors
outcome (Doses [Carcinogen]: 90 UMOL/KG BW GIVEN INTRAPERITONEALLY TO MOTHERS ON DAY 17 OF GESTATION, Doses [Promoter]: 0, 0.05% IN DRINKING WATER BEGINNING AT 4 WK OF AGE AND CONTINUING FOR 81 WK (STUDY DURATION: 85 WK), Route [Carcinogen]: TRANSPLACENTAL, Route [Promoter]: ORAL, Species: RAT, Strain/Sex: F344/MALE): kidney: tumors
outcome (Doses [Carcinogen]: 90 UMOL/KG ONCE IN DISTILLED WATER, Doses [Promoter]: 0, 500 PPM IN DRINKING WATER BEGINNING 2 WK POST CARCINOGEN DOSE (STUDY DURATION: 96 WK), Route [Carcinogen]: INTRAPERITONEAL, Route [Promoter]: ORAL, Species: RAT, Strain/Sex: F344/MALE): kidney: adenoma or carcinoma

C=C1C(O)C2OC3(CCC(/C=C/C(C)C4CC(C)=CC5(OC(CC(C)(O)C(=O)O)CCC5O)O4)O3)CCC2OC1C(O)CC(C)C1OC2(CCC1C)OCCCC2C (configuration not stated)
outcome (Carcinogen: 7,12-DIMETHYLBENZ[A]ANTHRACENE, 57-97-6, Doses [Carcinogen]: 100 UG IN 0.1 ML OF ACETONE ONCE, Doses [Promoter]: 0, 5 UG IN 0.1 ML OF ACETONE 2/WK FOR 30 WK BEGINNING 1 WK POST CARCINOGEN DOSE (STUDY DURATION: 31 WK), Route [Carcinogen]: DERMAL, Route [Promoter]: DERMAL, Species: MOUSE, Strain/Sex: CD-1/FEMALE): skin: tumor
